{
  "source": "the supplement of paper PMC10307832",
  "experiment_in_all_cases": "relative viability (nuclei count vs DMSO), 5 days (fraction); higher = more cells survive",
  "key": {"[1]": {"compound": "O=C(Nc1cc(C(F)(F)F)cc(C(F)(F)F)c1)c1cc(Cl)ccc1O [IMD-0354] + C[C@@H](Oc1cc(-c2cnn(C3CCNCC3)c2)cnc1N)c1c(Cl)ccc(F)c1Cl [Crizotinib] (partner 1 µM)", "summary_of_the_method": "(§1)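 Lung cancer cell lines were pin-tool dosed in 1536-well plates on the day after seeding, with either a lone drug or a fixed anchor-drug dose plus five library-drug doses (not always all listed) in √10 steps. Nuclei were counted on 4× images after 5 days. Relative viability is the ratio of treated-well to vehicle-well nuclei counts, with each value a median of duplicate plates.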"}, "[2]": {"compound": "Cc1cnc(CNC(=O)c2c(=O)c3ccc(N4CCCN(C)CC4)nc3n3c2sc2ccccc23)cn1 [CX-5461] + Nc1ncn([C@H]2C[C@H](O)[C@@H](CO)O2)c(=O)n1 [Decitabine] (partner 2 µM)", "summary_of_the_method": "as §1"}, "[3]": {"compound": "Cc1cnc(CNC(=O)c2c(=O)c3ccc(N4CCCN(C)CC4)nc3n3c2sc2ccccc23)cn1 [CX-5461] + CS(=O)(=O)N1CCN(Cc2cc3nc(-c4cccc5[nH]ncc45)nc(N4CCOCC4)c3s2)CC1 [Pictilisib] (partner 1 µM)", "summary_of_the_method": "as §1"}, "[4]": {"compound": "O=C(Nc1cc(C(F)(F)F)cc(C(F)(F)F)c1)c1cc(Cl)ccc1O [IMD-0354] + CC(=O)Nc1cccc(-n2c(=O)n(C3CC3)c(=O)c3c(Nc4ccc(I)cc4F)n(C)c(=O)c(C)c32)c1 [Trametinib] (partner 0.02 µM)", "summary_of_the_method": "as §1"}},
  "data": [
    {"cell line": "UMC-11", "values": [
      {"measurement": "relative viability", "setting": "[1]; first compound 0.04 µM", "result": 0.701},
      {"measurement": "relative viability", "setting": "[1]; first compound 0.1265 µM", "result": 0.578},
      {"measurement": "relative viability", "setting": "[1]; first compound 0.4 µM", "result": 0.432},
      {"measurement": "relative viability", "setting": "[1]; first compound 1.265 µM", "result": 0.263},
      {"measurement": "relative viability", "setting": "[1]; first compound 4 µM", "result": 0.267},
      {"measurement": "relative viability", "setting": "[2]; first compound 0.01 µM", "result": 0.611},
      {"measurement": "relative viability", "setting": "[2]; first compound 0.03162 µM", "result": 0.464},
      {"measurement": "relative viability", "setting": "[2]; first compound 0.1 µM", "result": 0.497},
      {"measurement": "relative viability", "setting": "[2]; first compound 0.3162 µM", "result": 0.301},
      {"measurement": "relative viability", "setting": "[2]; first compound 1 µM", "result": 0.36},
      {"measurement": "relative viability", "setting": "[3]; first compound 0.01 µM", "result": 0.869},
      {"measurement": "relative viability", "setting": "[3]; first compound 0.03162 µM", "result": 0.835},
      {"measurement": "relative viability", "setting": "[3]; first compound 0.1 µM", "result": 0.76},
      {"measurement": "relative viability", "setting": "[3]; first compound 0.3162 µM", "result": 0.149},
      {"measurement": "relative viability", "setting": "[3]; first compound 1 µM", "result": 0.259},
      {"measurement": "relative viability", "setting": "[4]; first compound 0.04 µM", "result": 0.745},
      {"measurement": "relative viability", "setting": "[4]; first compound 0.1265 µM", "result": 0.808},
      {"measurement": "relative viability", "setting": "[4]; first compound 0.4 µM", "result": 0.337},
      {"measurement": "relative viability", "setting": "[4]; first compound 1.265 µM", "result": 0.194},
      {"measurement": "relative viability", "setting": "[4]; first compound 4 µM", "result": 0.246}
    ]}
  ]
}
